Laboratory results as given in patent publication US20230202973A1, “BARNESIN A, DERIVATIVES AND USES THEREOF” (Leibniz-Institut Für Naturstoff-Forschung Und …, priority 2018, published 2023).
Like-named read-outs stand apart in the source and are kept apart here.

Key:
papain [1] = target: T1, papain (Carica papaya, UniProt P00784); assay: Protease assay with azocasein: papain; type: biochemical; settings: azocasein substrate, pH 7.2, n.i. = no inhibition; for IC50: read-out: Papain, inhibitory activity as IC50 value
T1 construct: purchased Sigma-Aldrich P4762
T1 sequence (P00784 134-345): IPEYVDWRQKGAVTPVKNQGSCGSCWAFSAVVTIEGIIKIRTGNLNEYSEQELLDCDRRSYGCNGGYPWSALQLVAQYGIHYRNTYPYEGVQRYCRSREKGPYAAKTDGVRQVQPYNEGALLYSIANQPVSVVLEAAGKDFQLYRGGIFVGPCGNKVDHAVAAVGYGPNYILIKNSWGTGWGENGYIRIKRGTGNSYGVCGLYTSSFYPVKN
Protocol: (§1) Protease Assays with azocasein: Protease inhibition assays against the proteases papain, ficin, trypsin, pepsin and thermolysin were performed according to the protocol of Garcia-Carreño (loc. cit.) in a reaction buffer containing 25 mM TRIS-HCl, 0.15 M NaCl, pH 7.2 (or pH 3.5 for aspartic protease). The total assay volume was 47 μL buffer with 2 μL of the protease as well as 1 μL of suitable inhibitor or corresponding inhibitor solvent (100% MeoH or water). Final concentration of proteases was as follows: 2 mg/mL for papain (Sigma-Aldrich, P4762), 600 μg/mL for ficin (Sigma-Aldrich, F6008), 80 μg/mL for trypsin (Thermo Fisher, 23266), 60 mg/mL for pepsin (Sigma-Aldrich P6887)) and 2 μg/mL for thermolysin (Sigma-Aldrich, P1512).
(§2) Inhibitors were dissolved in 100% MeOH or water and added to the assay (1 μL); final concentration: 2% MeOH. Samples of control inhibitors were prepared as follows: (1) serine protease (trypsin): PMFS (2 mM) and soybean trypsin inhibitor (240 μM) (Sigma-Aldrich, T1021), (2) cysteine proteases (papain and ficin): iodacetamide (2 mM), (3) […] (pepsin): pepstatin A (1 μg/mL) (Sigma-Aldrich, P4265), (4) metalloprotease (thermolysin): EDTA (10 mM). […] Negative controls were performed with protease alone (without inhibitor) and MeOH at a final concentration of 2% (reference for activity of 100%). Extract absorbance controls were performed using inhibitor (1 μL in MeOH) without protease. Blanks were performed using 49 μL buffer and 1 μL MeOH.
(§3) Samples were incubated with buffer and suitable inhibitor (or without for negative controls) for 1 h at r.t. and the reaction was started afterward by adding 50 μl of […] substrate and incubated for 1 h at 37° C. After stopping the reaction with trichloracetic acid (TCA), the separation of the precipitate was accomplished by centrifugation at 6500 g for 5 min. The hydrolyzed substrate supernatant was incubated in an equal volume of 0.5 N NaOH for 5 min and the absorbance was measured at 440 nm. OD values of the protease control without inhibitor were used as reference for a 100% activity.
(§4) The log IC50 values were determined using the standard curves analyzing tool with four parameter logistic equation of SigmaPlot12 with technical triplicates. Propagation of error was calculated using the standard error and log IC50 values where the equation of error propagation is defined as Δy=0.43Δx/x.

ficin = assay: Protease assay with azocasein: ficin; type: biochemical; settings: azocasein substrate, pH 7.2, n.i. = no inhibition; for IC50: read-out: Ficin, inhibitory activity as IC50 value
Protocol: as §1, §2, §3, §4

Cathepsin B = Cathepsin B (Homo sapiens, UniProt P07858); assay: Cathepsin B inhibition assay (Z-Arg-Arg-AMC); type: biochemical; settings: Z-Arg-Arg-AMC substrate, pH 6.0, n.i. = no inhibition; for IC50: read-out: Cathepsin B, inhibitory activity as IC50 value
Protocol: Cathepsin B inhibition assay. Cathepsin B inhibition assay was determined according to Hiwasa et al. (loc. cit.) with minor changes. Cathepsin B was purchased from Sigma Aldrich (C0150) and stored in 50 mM sodium acetate, 1 mM EDTA, pH 5 (adjusted with acetic acid). Cathepsin B was activated by preincubation at 40° C. for 10 min in assay buffer (0.1 M sodium acetate 1.3 mM EDTA, pH 6.0 adjusted with acetic acid, 2 μM DTT, 2.6 mM cysteine and 0.05% Triton X100). […] Final concentration of cathepsin B was 0.1 mg/ml. […] After stopping the reaction with 85 μL buffer containing 100 mM sodium monochlor acetate, 30 mM sodium acetate, 70 mM acetic acid, the hydrolyzed substrate was detected at an excitation wavelength of 380 nm and a fluorescence wavelength of 450 nm, using a fluorophotometer. 1 μL of 1.5 mM leupeptin was used as enzyme inhibition control.

trypsin [2] = target: T2, trypsin (Bos taurus, UniProt P00760); assay: Protease assay with azocasein: trypsin; type: biochemical; settings: azocasein substrate, pH 7.2; n.i. = no inhibition
T2 construct: purchased Thermo Fisher 23266
T2 sequence (P00760 24-246): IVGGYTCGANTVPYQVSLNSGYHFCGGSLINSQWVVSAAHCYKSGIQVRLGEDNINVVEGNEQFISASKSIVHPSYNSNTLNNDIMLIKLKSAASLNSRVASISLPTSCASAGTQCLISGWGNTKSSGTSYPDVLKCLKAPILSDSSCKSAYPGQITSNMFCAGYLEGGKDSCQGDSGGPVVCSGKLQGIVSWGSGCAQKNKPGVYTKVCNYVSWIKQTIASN
Protocol: as §1, §2, §3, §4

pepsin = target: T3, pepsin (Sus scrofa, UniProt P00791); assay: Protease assay with azocasein: pepsin; type: biochemical; settings: azocasein substrate, pH 3.5; n.i. = no inhibition
T3 construct: purchased Sigma-Aldrich P6887
T3 sequence (P00791 60-385): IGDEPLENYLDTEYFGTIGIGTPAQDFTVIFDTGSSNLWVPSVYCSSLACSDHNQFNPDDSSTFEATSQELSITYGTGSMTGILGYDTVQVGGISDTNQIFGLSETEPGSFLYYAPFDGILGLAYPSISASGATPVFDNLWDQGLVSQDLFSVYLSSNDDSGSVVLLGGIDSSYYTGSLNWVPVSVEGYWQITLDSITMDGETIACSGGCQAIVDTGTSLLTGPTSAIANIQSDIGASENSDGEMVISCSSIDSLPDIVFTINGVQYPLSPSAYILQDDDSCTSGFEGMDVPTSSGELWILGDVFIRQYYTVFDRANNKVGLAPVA
Protocol: as §1, §2, §3, §4

thermolysin = target: T4, thermolysin (Bacillus thermoproteolyticus, UniProt P00800); assay: Protease assay with azocasein: thermolysin; type: biochemical; settings: azocasein substrate, pH 7.2; n.i. = no inhibition
T4 construct: purchased Sigma-Aldrich P1512
T4 sequence (P00800 233-548): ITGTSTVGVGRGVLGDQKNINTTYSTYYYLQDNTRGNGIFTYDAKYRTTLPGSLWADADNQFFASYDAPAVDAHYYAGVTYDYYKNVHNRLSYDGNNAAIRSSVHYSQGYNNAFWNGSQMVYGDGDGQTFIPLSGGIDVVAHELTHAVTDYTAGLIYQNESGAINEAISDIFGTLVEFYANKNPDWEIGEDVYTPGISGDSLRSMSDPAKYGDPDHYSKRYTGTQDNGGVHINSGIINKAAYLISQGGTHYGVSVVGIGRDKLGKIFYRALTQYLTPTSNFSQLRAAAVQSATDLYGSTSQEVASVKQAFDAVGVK
Protocol: as §1, §2, §3, §4

[3] = system: thermolysin (Sigma-Aldrich, P1512); settings: 10 mM EDTA
Protocol: Protease Assays with azocasein: Protease inhibition assays against the proteases papain, ficin, trypsin, pepsin and thermolysin were performed according to the protocol of Garcia-Carreño (loc. cit.) in a reaction buffer containing 25 mM TRIS-HCl, 0.15 M NaCl, pH 7.2 (or pH 3.5 for aspartic protease). The total assay volume was 47 μL buffer with 2 μL of the protease as well as 1 μL of suitable inhibitor or corresponding inhibitor solvent (100% MeoH or water). […]
Inhibitors were dissolved in 100% MeOH or water and added to the assay (1 μL); final concentration: 2% MeOH. […] Extract absorbance controls were performed using inhibitor (1 μL in MeOH) without protease. […]
Samples were incubated with buffer and suitable inhibitor (or without for negative controls) for 1 h at r.t. and the reaction was started afterward by adding 50 μl of […] substrate and incubated for 1 h at 37° C. […] The hydrolyzed substrate supernatant was incubated in an equal volume of 0.5 N NaOH for 5 min and the absorbance was measured at 440 nm. […]
as §4

papain [4] = target: T1, papain; settings: reported in literature for known compounds; read-out: Papain, reported inhibitory activity as IC50 value; cited from earlier work
trypsin [5] = settings: reported in literature for known compounds; read-out: Trypsin, reported inhibitory activity as IC50 value; cited from earlier work

| Structure (SMILES) | IC50 (papain [1]) [nM] | IC50 (ficin) [nM] | IC50 (Cathepsin B) [nM] | Trypsin, inhibitory activity as IC50 value (trypsin [2]) | Pepsin, inhibitory activity as IC50 value (pepsin) | Thermolysin, inhibitory activity as IC50 value (thermolysin) | Papain, inhibitory activity as IC50 value (papain [1]) | Ficin, inhibitory activity as IC50 value (ficin) | Cathepsin B, inhibitory activity as IC50 value (Cathepsin B) | inhibition of enzyme activity (control inhibitor), thermolysin [3] [%] | IC50 (papain [4]) [nM] | IC50 (trypsin [5]) [nM] |
| --- | --- | --- | --- | --- | --- | --- | --- | --- | --- | --- | --- | --- |
| CCCCCCCC(=O)N[C@@H](Cc1ccc(O)cc1)C(=O)N[C@H](/C=C/C(=O)O)CCCNC(=N)N [17,18-Dihydrobarnesin (4), 17,18-Dihydrobarnesin] | 4780 | 1160 | 87.6 | n.i. | n.i. | n.i. |  |  |  |  |  |  |
| CCCCCCCC(=O)N[C@@H](Cc1ccc(O)cc1)C(=O)N[C@@H](CCCNC(=N)N)CCC(=O)O [(R), 2,3,17,18-Tetrahydrobarnesin A, reference compound] |  |  |  | n.i. | n.i. | n.i. | n.i. | n.i. | n.i. |  |  |  |
| CCCCCCCC(=O)N[C@@H](Cc1ccc(O)cc1)C(=O)N[C@@H](CCCNC(=N)N)CCC(=O)OC [(S), 2,3-17,18-Tetrahydrobarnesin A methyl ester, reference compound] |  |  |  | n.i. | n.i. | n.i. | n.i. | n.i. | n.i. |  |  |  |
| CCCCC/C=C/C(=O)N[C@@H](Cc1ccc(O)cc1)C(=O)N[C@H](/C=C/C(=O)O)CCCNC(=N)N [Barnesin A (1), Barnesin A] | 16000 | 3430 | 91.7 | n.i. | n.i. | n.i. |  |  |  |  |  |  |
| CCCCC/C=C/C(=O)N[C@@H](Cc1ccc(O)cc1)C(=O)N[C@H](/C=C/C(=O)OCC)CCCN=C(N)N [Barnesin A ethyl ester (3), (E)-Oct-2-enoyl-tyrosine-vinylogous arginine ethyl ester] | 2890 | 3430 | 24 | n.i. | n.i. | n.i. |  |  |  |  |  |  |
| O=C(O)CN(CCN(CC(=O)O)CC(=O)O)CC(=O)O [EDTA] |  |  |  |  |  |  |  |  |  | > 95 |  |  |
| CC(=O)N[C@@H](CC(C)C)C(=O)N[C@@H](CC(C)C)C(=O)N[C@H](C=O)CCCNC(=N)N [Leupeptin, reference compound] |  |  |  |  |  |  |  |  |  |  | 860 | 2200 |
